# Assay results taken from patent EP0562731A1, “Substituted pyridinesulfonamide compounds or their salts, process for preparing the same, and herbicides containing the same” (ISHIHARA SANGYO KAISHA, Ltd., priority 1992, dated 1993).
# Tests used:
# Experiment in all cases: Test Example 1: foliar application pot test, visual growth control rating
# Assay type in all cases: in vivo
# Conditions in all cases: 1.25 g/a active ingredient, wettable powder, observed 20 to 31 days after application
# cotton (Gossypium) = tested on: cotton (Gossypium)
# Source text: 1/1,500 are [are (a) = 100 m²] pots were filled with upland farming soil, which in the pots was then sown with a variety of plants. The plants grown will be enumerated below.
# When each plant reached a given growth stage (a 1.2- to 3.0-leaf stage for rice, primary leaf to a 0.7-leaf stage for soybean, 2.1- to 3.6-leaf stage for corn, cotyledon to 0.7-leaf stage for cotton, 2.0- to 3.0-leaf stage for wheat, 0.3- to 3.4-leaf stage for cocklebur, 0.3- to 1.6-leaf stage for morning glory, 0.1- to 1.3-leaf stage for prickly sida, 0.1- to 1.3-leaf stage for slender amaranth, 1.5- to 3.2-leaf stage for barnyard glass, and 1.2- to 3.0-leaf stage for large crabgrass), a predetermined amount of the herbicide of the present invention in the form of a wettable powder, weighed out, diluted with 5 ℓ/a of water and admixed with 0.2 or 0.1 vol%, based on the resulting composition, of an agricultural spreader, was foliarly applied to the plant with a small spray gun. The progress of growth of the plant was visually observed 20 to 31 days after the foliar application to evaluate the degree of growth control according to 10 ratings (1: the same as in an untreated plot - 10: perfect growth control).
# [1] = tested on: prickly sida (Sida spinosa); set-up: key: 1: the same as in an untreated plot; 10: perfect growth control
# rice (Oryza sativa) = tested on: rice (Oryza sativa); set-up: key: 1: the same as in an untreated plot; 10: perfect growth control
# soybean (Glycine max) = tested on: soybean (Glycine max); set-up: key: 1: the same as in an untreated plot; 10: perfect growth control
# [2] = tested on: slender amaranth (Amaranthus viridis); set-up: key: 1: the same as in an untreated plot; 10: perfect growth control
# [3] = tested on: large crabgrass (Digitaria adscendens); set-up: key: 1: the same as in an untreated plot; 10: perfect growth control
# How it was run: (§1)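 Upland farming soil in pots is sown; each species is sprayed at a set stage (cotton cotyledon to 0.7 leaf, cocklebur 0.3–3.4, morning glory 0.3–1.6, crabgrass 1.2–3.0 leaf). Diluted wettable powder (5 ℓ/a, spreader added) goes on by spray gun, and control is rated 1–10 after 20–31 days.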
# [4] = tested on: barnyard grass (Echinochloa crus-galli); set-up: key: 1: the same as in an untreated plot; 10: perfect growth control
# How it was run: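 Pots of 1/1,500 are were filled with upland soil and sown with barnyard grass. At the 1.5- to 3.2-leaf stage, the herbicide was applied to the foliage with a small spray gun as a wettable powder diluted in 5 ℓ/a of water plus 0.2 or 0.1 vol% agricultural spreader. Growth control was scored visually 20 to 31 days later on a 1–10 scale.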
# [5] = tested on: morning glory (Ipomoea purpurea); set-up: key: 1: the same as in an untreated plot; 10: perfect growth control
# How it was run: as §1
# [6] = tested on: cocklebur (Xanthium strumarium); set-up: key: 1: the same as in an untreated plot; 10: perfect growth control
# How it was run: as §1
# corn (Zea mays) = tested on: corn (Zea mays); set-up: key: 1: the same as in an untreated plot; 10: perfect growth control
smiles,measurement,setting,value
CCN(c1cccc(S(=O)(=O)NC(=O)Nc2nc(C)nc(OC)n2)n1)S(=O)(=O)CC(F)(F)F [compound 79],"degree of growth control, GO",cotton (Gossypium),6
same,"degree of growth control, SI",[1],3
same,"degree of growth control, OR",rice (Oryza sativa),1
same,"degree of growth control, GL",soybean (Glycine max),6
same,"degree of growth control, AM",[2],6
same,"degree of growth control, DI",[3],3
same,"degree of growth control, EC",[4],1
same,"degree of growth control, IP",[5],7
same,"degree of growth control, XA",[6],6
same,"degree of growth control, ZE",corn (Zea mays),1
